The record followed here is patent publication US11970489B1, “4-[(substituted 1H-benzimidazol-2-ylsulfanyl)methyl]-6-substituted-2H-chromen-2-ones as larvicidal agents” (KING FAISAL UNIVERSITY, priority 2023, dated 2024).

Data set [1] concerns Anopheles arabiensis. Description: Larvicidal screening (WHO protocol), 3rd instar larvae. Type of data set: in vivo. The protocol:
Anopheles arabiensis was used in the study according to the protocol described by WHO (1975) guidelines in an insectary simulating the temperature (27.5° C.), humidity (70%), and lighting (12/12) of a malaria-endemic environment. One mL of test compound (1 mg/mL) was added to 1 mL of acetone and followed by […] of distilled water to obtain a final concentration of 4 μg/mL. Thirty individuals of 3rd instar larvae were introduced into a container. Negative control was set up using the solvent (acetone) and distilled water, and a positive control included Temephos, which is an active emulsified organophosphate larvicidal used by malaria control programs. Larval mortality was examined for each container separately for 24 h and fed specially made cat food that contained less oil/fat content. The percentage of mortality was determined relative to the initial number of larvae exposed.
Differences in larval mortality between treatments were assessed with generalized linear models using a quasi-Poisson link function. Anopheles arabiensis mortality was the dependent variable, while fixed effects were test compounds and observation period (24 and 48 h). A p-value <0.05 was considered statistically significant. Throughout the text, the results are presented as the adjusted mean the standard error.

Where two headings read alike, the source gives them in different places.

In turn, `Cc1ccc2oc(=O)cc(CSc3nc4ccccc4[nH]3)c2c1` yielded a melting point of 190 to 192 °C.

`COc1ccc2nc(SCc3cc(=O)oc4ccc(C)cc34)[nH]c2c1`: the melting point lay within 176 to 178 °C. The compound `Cc1ccc2oc(=O)cc(CSc3nc4ccccc4s3)c2c1` yielded a melting point of 192 to 194 °C. Consider `CC(C)(C)c1ccc2oc(=O)cc(CSc3nc4ccccc4[nH]3)c2c1`, for which the melting point was in the range of 189 to 190 °C. `CC(C)(C)c1ccc2oc(=O)cc(CSc3nc4ccccc4o3)c2c1` showed a melting point of 212 to 214 °C. For `Cc1ccc2oc(=O)cc(CSc3nc4ccccc4o3)c2c1` [Compound 3c, 4-[(1,3-Benzoxazol-2-ylsulfanyl)methyl]-6-methyl-2H-chromen-2-one], the mortality at 4 µg/mL in data set [1] (24 h, read-out: Mortality 24 h) was determined as 70.1 ± 2.29%; in data set [1] (48 h, read-out: Mortality 48 h) it was 75.8 ± 2.21%. The corresponding values for `Cc1ccc2oc(=O)cc(CSc3nnc(C)s3)c2c1` [Compound 3e, 6-Methyl-4-{[(5-methyl-1,3,4-thiadiazol-2-yl)sulfanyl]methyl}-2H-chromen-2-one] are 77.2 ± 2.02% and 82.2 ± 1.93%. As to `CC(C)(C)c1ccc2oc(=O)cc(CSc3nc4ccccc4s3)c2c1` [Compound 3i, 4-[(1,3-Benzothiazol-2-ylsulfanyl)methyl]-6 tert-butyl-2H-chromen-2-one], the mortality at 4 µg/mL in data set [1] (24 h, read-out: Mortality 24 h) turned out to be 89.9 ± 2.44%; in data set [1] (48 h, read-out: Mortality 48 h), 94.7 ± 2.11%. With `Cc1nnc(SCc2cc(=O)oc3ccc(C(C)(C)C)cc23)s1` [Compound 3j, 4-{[(5-Methyl-1,3,4-thiadiazol-2-yl)sulfanyl]methyl}-6 tert-butyl-2H-chromen-2-one], the mortality at 4 µg/mL in data set [1] (24 h, read-out: Mortality 24 h) was determined as 94.7 ± 2.61%; in data set [1] (48 h, read-out: Mortality 48 h), 95.1 ± 2.09%. For the compound `COP(=S)(OC)Oc1ccc(Sc2ccc(OP(=S)(OC)OC)cc2)cc1` [Temephos, reference compound], the mortality at 4 µg/mL in data set [1] (24 h, read-out: Mortality 24 h) turned out to be 98.9 ± 2.7%; in data set [1] (48 h, read-out: Mortality 48 h), 100 ± 2.71%.
